{"source": "patent USRE35281E", "about": "“Tetrazole derivatives and aldose reductase inhibition therewith” (Wakamoto Pharmaceutical Co., Ltd., priority 1989, dated 1996)", "key": {"[1]": {"test": "Acute toxicity test, oral (Experiment 3)", "details": "mouse, in vivo, suspended in 0.5% sodium carboxymethyl cellulose, male MCH mice, 14 days observation", "description": "The compound listed in Table 7 and suspended in 0.5% sodium carboxymethyl cellulose was orally administered to male MCH mice (6 weeks old: 5 animals per test group).\nDuring the test, the mice were able to take food and water freely."}, "aldose reductase [2]": {"biological_target": "T1, aldose reductase (Rattus norvegicus, UniProt P07943)", "T1 construct": "their crystalline lenses were immediately removed and stored at -80° C; The lenses were homogenized; from tissue; host or cells: crystalline lens of six-week-old male SD rats (homogenate supernatant, dialysed)", "test": "Aldose reductase inhibition, IC50 determination (Experiment 2)", "type": "biochemical, rat (male SD rat crystalline lens)", "details": "calculated from inhibitions at three final concentrations; DL-glycerine aldehyde 10 mM, pH 6.2, 30° C.", "procedure": "Six-week-old male SD rats were killed under ether anesthesia and their crystalline lenses were immediately removed and stored at -80° C. […] The supernatant was dialyzed overnight against 0.05M sodium chloride, to produce an aldose reductase solution. All operations were conducted at 4° C. The enzyme solution was stored at -80° C.\n(§1) Namely, 0.1 ml of DL-glycerine aldehyde (final concentration: 10 mM) was added to 0.9 ml of 100 mM sodium potassium phosphate buffer (pH 6.2) which contained lithium sulfate (final concentration: 400 mM), reduced nicotinamide adenine dinucleotide phosphate (final concentration: 0.15 mM), the enzyme solution, and the compound to be tested (final concentration: 5×10^-5 M or 10^-6 M), and then the reaction was conducted at 30° C. for 5 min. […] The maximum reducing rate of the absorbance (U) during the reaction was determined. By substracting, from this value, the maximum reducing rate (Uo) at 340 nm of the reaction solution before the addition of the substrate (DL-glycerine aldehyde), the reaction rate (V) (V=U-Uo) was calculated as a true reaction rate in the presence of the compound to be tested.\n(§2) The same procedure was repeated except for the absence of the compound to be tested. A true reaction rate (Vo) in case the enzyme was not inhibited was calculated (Vo =U'-Uo '). The inhibitory activity of aldose reductase was determined by the following formula. [formula]\nIn the same manner as Experiment 1, the inhibitions at final concentrations of 10^-6, 10^-7 and […] for the compound to be tested were calculated."}, "aldose reductase [3]": {"biological_target": "T1, aldose reductase", "test": "Aldose Reductase Inhibition Test (Experiment 1)", "type": "biochemical, rat (male SD rat crystalline lens)", "details": "DL-glycerine aldehyde 10 mM, pH 6.2, 30° C., 5 min; for inhibition at 1 µM: *Concentration of 10^-6 M; for inhibition at 50 µM: final concentration 5×10^-5 M (values without asterisk)", "procedure": "Six-week-old male SD rats were killed under ether anesthesia and their crystalline lenses were immediately removed and stored at -80° C. The lenses were homogenized in 3 volumes of 135 mM sodium potassium phosphate buffer (pH: 7.0) and centrifuged at a rate of 30,000 rpm for 30 min. The supernatant was dialyzed overnight against 0.05M sodium chloride, to produce an aldose reductase solution. All operations were conducted at 4° C. The enzyme solution was stored at -80° C.\nas §1, with “The activity of aldose reductase was determined according to a slight modification of the method of J. H. Kinoshita et al [J. Biol. Chem., 240, 877 (1965)]. Namely,” for “Namely,”\nas §2"}}, "data": [{"smiles": "Cc1ccc(-c2nnnn2CC(=O)O)cc1", "note": "[Compound 3-6, 5-(4-Methylphenyl)-1-tetrazoleacetic acid]", "values": [{"measurement": "LD50 at 336 h", "setting": "[1]", "result": "> 3000", "unit": "mg/kg"}, {"measurement": "IC50", "setting": "aldose reductase [2]", "result": 0.025, "unit": "µM"}, {"measurement": "inhibition at 1 µM", "setting": "aldose reductase [3]", "result": 98, "unit": "%"}]}, {"smiles": "O=C(O)Cn1nnnc1-c1cccc(NC(=O)C(=O)O)c1", "note": "[Compound 3-12, 3'-(1-Carboxymethyl-tetrazol-5-yl)oxanilic acid]", "values": [{"measurement": "LD50 at 336 h", "setting": "[1]", "result": "> 3000", "unit": "mg/kg"}, {"measurement": "IC50", "setting": "aldose reductase [2]", "result": 0.031, "unit": "µM"}, {"measurement": "inhibition at 50 µM", "setting": "aldose reductase [3]", "result": 97, "unit": "%"}]}, {"smiles": "O=C(O)Cn1nnnc1-c1ccccc1", "note": "[Compound 3-1, 5-Phenyl-1-tetrazoleacetic acid]", "values": [{"measurement": "LD50 at 336 h", "setting": "[1]", "result": "> 3000", "unit": "mg/kg"}, {"measurement": "IC50", "setting": "aldose reductase [2]", "result": 0.032, "unit": "µM"}, {"measurement": "inhibition at 1 µM", "setting": "aldose reductase [3]", "result": 97, "unit": "%"}]}, {"smiles": "COC(=O)Cn1nnnc1-c1ccc(C)cc1", "note": "[Compound 1-7, Methyl 5-(4-methylphenyl)-1-tetrazoleacetate]", "values": [{"measurement": "LD50 at 336 h", "setting": "[1]", "result": "> 3000", "unit": "mg/kg"}, {"measurement": "inhibition at 50 µM", "setting": "aldose reductase [3]", "result": 59, "unit": "%"}]}]}
